From patent EP1945226B1, “DRUG COMBINATION WITH ANALGESIC, ANTI-INFLAMMATORY AND DECONGESTIVE ACTIVITY” (Voicu, A. Victor, priority 2005, dated 2006) come the findings set out here.

This assay concerns edema induced by carrageenan. Description: experimental inflammation model with carrageenan at the rats' posterior paws. The assay is classed as in vivo, Wistar rats. The following applies: rat, administered independently. How it is done:
The anti-inflammatory effect was found via the experimental inflammation model with carrageenan at the rats' posterior paws. For the experimental research, we used Wistar rats with 120±10g weight, in groups of 9 animals.
1% carrageenan saline solution was administered by subcutaneous injection (0.1 mL volume) In the posterior paw.
The anti-inflammatory combination was administered 1 hour before carrageenan. The posterior paws' dimensions were measured before and 3 hours after carrageenan solution injection. The contra lateral paw was used as reference. The following combination was used for the experiments:
This (combination, formulated as) suspension was administered orally (gavage), in dosage of 0.2 mL/100 g rat body weight.
Acetylsalicylic acid was administered independently, in doses of 250 mg/kg body weight, equivalent to the quantity used in the combination. Chlorpheniramine was also (independently) administered by oral route, as reference, in doses equivalent to 6 mg/kg body weight.
(In general: The carrageenan paw model is a standard test of acute inflammation.)

With `CN(C)CCC(c1ccc(Cl)cc1)c1ccccn1` (centres unmarked) [chlorpheniramine], the anti-inflammatory effect result (oral route, 6 mg/kg body weight) is recorded as “no anti-inflammatory effect”. Regarding `CC(=O)Oc1ccccc1C(=O)O` [acetylsalicylic acid], the “anti-inflammatory effect (reduces pow edema), mean value” (250 mg/kg body weight) was “approximately 22%”.
